Tests used:
Experiment in all cases: relative viability (nuclei count vs DMSO), 5 days (fraction); higher = more cells survive
[1] = test system: NCI-H358
How it was run: (§1)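 Relative viability equals treated-well nuclei counts divided by vehicle-well nuclei counts. Counts came from 4× images of lung cancer cell lines grown in 1536-well plates for 5 days after pin-tool dosing on the day after seeding. Dosing used one drug alone or a fixed anchor-drug dose plus five library-drug doses (not always all listed) in √10 steps, and values are medians of duplicate plates.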

[2] = test system: LC-2-ad
How it was run: as §1

[3] = test system: NCI-H460
How it was run: as §1

[4] = test system: HCC-78
How it was run: as §1

[5] = test system: NCI-H1975
How it was run: as §1

[6] = test system: SW 1573
How it was run: as §1

[7] = test system: LOU-NH91
How it was run: as §1

[8] = test system: NCI-H1915
How it was run: as §1

[9] = test system: A-427
How it was run: as §1

[10] = test system: NCI-H647
How it was run: as §1

[11] = test system: SK-LU-1
How it was run: as §1

[12] = test system: HOP-62
How it was run: as §1

[13] = test system: NCI-H1755
How it was run: as §1

[14] = test system: HCC-15
How it was run: as §1

[15] = test system: NCI-H2126
How it was run: as §1

[16] = test system: PC-3 [JPC-3]
How it was run: as §1

[17] = test system: NCI-H2228
How it was run: as §1

[18] = test system: NCI-H2347
How it was run: as §1

[19] = test system: RERF-LC-KJ
How it was run: as §1

[20] = test system: NCI-H1734
How it was run: as §1

[21] = test system: LXF-289
How it was run: as §1

[22] = test system: NCI-H1792
How it was run: as §1

Structure (SMILES): COc1cc(N2CCC(C(N)=O)CC2)ccc1Nc1nc(N)c(Cl)c(Nc2ccccc2S(=O)(=O)C(C)C)n1 [HG-5-88-01] + CS(=O)(=O)CCNCc1ccc(-c2ccc3ncnc(Nc4ccc(OCc5cccc(F)c5)c(Cl)c4)c3c2)o1 [Lapatinib] (partner 2 µM)
- relative viability ([1]; first compound 0.04 µM): 0.451
- relative viability ([1]; first compound 0.1265 µM): 0.378
- relative viability ([1]; first compound 0.4 µM): 0.307
- relative viability ([1]; first compound 1.265 µM): 0.256
- relative viability ([1]; first compound 4 µM): 0.304
- relative viability ([2]; first compound 0.04 µM): 0.993
- relative viability ([2]; first compound 0.1265 µM): 1.02
- relative viability ([2]; first compound 0.4 µM): 0.876
- relative viability ([2]; first compound 1.265 µM): 0.908
- relative viability ([2]; first compound 4 µM): 0.629
- relative viability ([3]; first compound 0.04 µM): 0.963
- relative viability ([3]; first compound 0.1265 µM): 0.981
- relative viability ([3]; first compound 0.4 µM): 0.871
- relative viability ([3]; first compound 1.265 µM): 0.996
- relative viability ([3]; first compound 4 µM): 0.302
- relative viability ([4]; first compound 0.04 µM): 0.737
- relative viability ([4]; first compound 0.1265 µM): 0.465
- relative viability ([4]; first compound 0.4 µM): 0.223
- relative viability ([4]; first compound 1.265 µM): 0.264
- relative viability ([4]; first compound 4 µM): 0.226
- relative viability ([5]; first compound 0.04 µM): 0.896
- relative viability ([5]; first compound 0.1265 µM): 0.907
- relative viability ([5]; first compound 0.4 µM): 0.723
- relative viability ([5]; first compound 1.265 µM): 0.736
- relative viability ([5]; first compound 4 µM): 0.447
- relative viability ([6]; first compound 0.04 µM): 1.12
- relative viability ([6]; first compound 0.1265 µM): 0.86
- relative viability ([6]; first compound 0.4 µM): 0.989
- relative viability ([6]; first compound 1.265 µM): 1.06
- relative viability ([6]; first compound 4 µM): 1.04
- relative viability ([7]; first compound 0.04 µM): 0.743
- relative viability ([7]; first compound 0.1265 µM): 0.673
- relative viability ([7]; first compound 0.4 µM): 0.594
- relative viability ([7]; first compound 1.265 µM): 0.592
- relative viability ([7]; first compound 4 µM): 0.608
- relative viability ([8]; first compound 0.04 µM): 0.958
- relative viability ([8]; first compound 0.1265 µM): 1
- relative viability ([8]; first compound 0.4 µM): 0.977
- relative viability ([8]; first compound 1.265 µM): 1
- relative viability ([8]; first compound 4 µM): 0.698
- relative viability ([9]; first compound 0.04 µM): 0.976
- relative viability ([9]; first compound 0.1265 µM): 0.984
- relative viability ([9]; first compound 0.4 µM): 0.978
- relative viability ([9]; first compound 1.265 µM): 1.04
- relative viability ([9]; first compound 4 µM): 0.589
- relative viability ([10]; first compound 0.04 µM): 0.929
- relative viability ([10]; first compound 0.1265 µM): 1.23
- relative viability ([10]; first compound 1.265 µM): 1.11
- relative viability ([10]; first compound 4 µM): 1.21
- relative viability ([11]; first compound 0.04 µM): 0.947
- relative viability ([11]; first compound 0.1265 µM): 0.855
- relative viability ([11]; first compound 0.4 µM): 0.787
- relative viability ([11]; first compound 1.265 µM): 0.611
- relative viability ([11]; first compound 4 µM): 0.737
- relative viability ([12]; first compound 0.04 µM): 1.1
- relative viability ([12]; first compound 0.1265 µM): 1.1
- relative viability ([12]; first compound 0.4 µM): 1.05
- relative viability ([12]; first compound 1.265 µM): 1.2
- relative viability ([12]; first compound 4 µM): 0.893
- relative viability ([13]; first compound 0.1265 µM): 1.04
- relative viability ([13]; first compound 0.4 µM): 0.986
- relative viability ([13]; first compound 1.265 µM): 1.02
- relative viability ([13]; first compound 4 µM): 1.15
- relative viability ([14]; first compound 0.04 µM): 0.878
- relative viability ([14]; first compound 0.1265 µM): 0.83
- relative viability ([14]; first compound 0.4 µM): 0.792
- relative viability ([14]; first compound 1.265 µM): 0.894
- relative viability ([14]; first compound 4 µM): 0.449
- relative viability ([15]; first compound 0.04 µM): 0.649
- relative viability ([15]; first compound 0.1265 µM): 0.712
- relative viability ([15]; first compound 0.4 µM): 0.706
- relative viability ([15]; first compound 1.265 µM): 0.726
- relative viability ([15]; first compound 4 µM): 0.45
- relative viability ([16]; first compound 0.04 µM): 0.408
- relative viability ([16]; first compound 0.1265 µM): 0.466
- relative viability ([16]; first compound 0.4 µM): 0.39
- relative viability ([16]; first compound 1.265 µM): 0.434
- relative viability ([16]; first compound 4 µM): 0.25
- relative viability ([17]; first compound 0.04 µM): 0.322
- relative viability ([17]; first compound 0.1265 µM): 0.264
- relative viability ([17]; first compound 0.4 µM): 0.394
- relative viability ([17]; first compound 1.265 µM): 0.409
- relative viability ([17]; first compound 4 µM): 0.356
- relative viability ([18]; first compound 0.04 µM): 1.02
- relative viability ([18]; first compound 0.1265 µM): 0.947
- relative viability ([18]; first compound 0.4 µM): 0.896
- relative viability ([18]; first compound 1.265 µM): 1.01
- relative viability ([18]; first compound 4 µM): 0.887
- relative viability ([19]; first compound 0.04 µM): 0.833
- relative viability ([19]; first compound 0.1265 µM): 0.774
- relative viability ([19]; first compound 0.4 µM): 0.826
- relative viability ([19]; first compound 1.265 µM): 0.876
- relative viability ([19]; first compound 4 µM): 0.839
- relative viability ([20]; first compound 0.04 µM): 1
- relative viability ([20]; first compound 0.1265 µM): 1.08
- relative viability ([20]; first compound 0.4 µM): 1.02
- relative viability ([20]; first compound 1.265 µM): 0.982
- relative viability ([20]; first compound 4 µM): 0.969
- relative viability ([21]; first compound 0.04 µM): 0.913
- relative viability ([21]; first compound 0.1265 µM): 0.904
- relative viability ([21]; first compound 0.4 µM): 0.883
- relative viability ([21]; first compound 1.265 µM): 0.928
- relative viability ([21]; first compound 4 µM): 0.867
- relative viability ([22]; first compound 0.04 µM): 0.792
- relative viability ([22]; first compound 0.1265 µM): 0.892
- relative viability ([22]; first compound 0.4 µM): 0.864
- relative viability ([22]; first compound 1.265 µM): 0.879
- relative viability ([22]; first compound 4 µM): 0.888
